Source: patent publication US20210179585A1, “CRYSTAL FORM OF ABEMACICLIB MESYLATE, PREPARATION METHOD THEREFOR AND PHARMACEUTICAL COMPOSITION THEREOF” (Hangzhou SoliPharma Co., Ltd., priority 2018, published 2021)

Test: Form stability experiment of crystalline forms (XRD crystalline form test after storage)
Assay type: physicochemical
Settings: for Test result after 30 day (XRD crystalline form): 20 mg placed at 60° C. or at room temperature under dry conditions for 30 days; for form stability on storage (form kept or changed, appearance): one month in a dry environment at room temperature and at 60° C.
Description: X-ray powder diffraction (XRPD): performed on a Bruker D8 Advance diffractometer. Samples are tested at room temperature. Testing conditions: 2θ scan range 3 to 40°, step size 0.02° and speed 0.2 s/step.
Form stability experiment of crystalline forms: Placed 20 mg abemaciclib mesylate in Preparation Example 1, abemaciclib mesylate Form 1, Form 2, Form 5, Form 6, and Form 8 of the present invention at 60° C. or at room temperature under dry conditions for 30 days, then carried out XRD crystalline form test.

Row | Test result after 30 day (XRD crystalline form) (methanesulfonate) | form stability on storage (form kept or changed, appearance) (methanesulfonate) | Compound | also measured
1 | Form 8 | kept its form unchanged | CCN1CCN(Cc2ccc(Nc3ncc(F)c(-c4cc(F)c5nc(C)n(C(C)C)c5c4)n3)nc2)CC1.CS(=O)(=O)O [Abemaciclib mesylate Form 8, N-(5-((4-ethylpiperazin-1-yl)methyl)pyridin-2-yl)-5-fluoro-4-(4-fluoro-1-isopropyl-2-methyl-1H-benzo[d]imidazol-6-yl)pyrimidin-2-amine methanesulfonate] | Test result after 30 day (XRD crystalline form) (listed as Form 8, methanesulfonate): still kept their original crystalline forms
2 | Amorphous | – | CCN1CCN(Cc2ccc(Nc3ncc(F)c(-c4cc(F)c5nc(C)n(C(C)C)c5c4)n3)nc2)CC1.CS(=O)(=O)O [Abemaciclib mesylate, N-(5-((4-ethylpiperazin-1-yl)methyl)pyridin-2-yl)-5-fluoro-4-(4-fluoro-1-isopropyl-2-methyl-1H-benzo[d]imidazol-6-yl)pyrimidin-2-amine methanesulfonate] | form stability on storage (form kept or changed, appearance) (listed as amorphos abemaciclib mesylate, methanesulfonate): weak crystalline state and discoloration appeared; form stability on storage (form kept or changed, appearance) (listed as amorphous abemaciclib mesylate, methanesulfonate): weak crystalline state and discoloration appeared

The next lines start with the molecule.

Row | Compound | Test result after 30 day (XRD crystalline form) (methanesulfonate) | form stability on storage (form kept or changed, appearance) (methanesulfonate) | also measured
3 | CCN1CCN(Cc2ccc(Nc3ncc(F)c(-c4cc(F)c5nc(C)n(C(C)C)c5c4)n3)nc2)CC1.CS(=O)(=O)O [Abemaciclib mesylate Form 1, N-(5-((4-ethylpiperazin-1-yl)methyl)pyridin-2-yl)-5-fluoro-4-(4-fluoro-1-isopropyl-2-methyl-1H-benzo[d]imidazol-6-yl)pyrimidin-2-amine methanesulfonate] | Form 1 | kept its form unchanged | Test result after 30 day (XRD crystalline form) (listed as Form 1, methanesulfonate): still kept their original crystalline forms
4 | CCN1CCN(Cc2ccc(Nc3ncc(F)c(-c4cc(F)c5nc(C)n(C(C)C)c5c4)n3)nc2)CC1.CS(=O)(=O)O [Abemaciclib mesylate Form 2, N-(5-((4-ethylpiperazin-1-yl)methyl)pyridin-2-yl)-5-fluoro-4-(4-fluoro-1-isopropyl-2-methyl-1H-benzo[d]imidazol-6-yl)pyrimidin-2-amine methanesulfonate] | Form 2 | kept its form unchanged | Test result after 30 day (XRD crystalline form) (listed as Form 2, methanesulfonate): still kept their original crystalline forms
5 | CCN1CCN(Cc2ccc(Nc3ncc(F)c(-c4cc(F)c5nc(C)n(C(C)C)c5c4)n3)nc2)CC1.CS(=O)(=O)O [Abemaciclib mesylate Form 5, N-(5-((4-ethylpiperazin-1-yl)methyl)pyridin-2-yl)-5-fluoro-4-(4-fluoro-1-isopropyl-2-methyl-1H-benzo[d]imidazol-6-yl)pyrimidin-2-amine methanesulfonate] | Form 5 | kept its form unchanged | Test result after 30 day (XRD crystalline form) (listed as Form 5, methanesulfonate): still kept their original crystalline forms
6 | CCN1CCN(Cc2ccc(Nc3ncc(F)c(-c4cc(F)c5nc(C)n(C(C)C)c5c4)n3)nc2)CC1.CS(=O)(=O)O [Abemaciclib mesylate Form 6, N-(5-((4-ethylpiperazin-1-yl)methyl)pyridin-2-yl)-5-fluoro-4-(4-fluoro-1-isopropyl-2-methyl-1H-benzo[d]imidazol-6-yl)pyrimidin-2-amine methanesulfonate] | Form 6 | kept its form unchanged | Test result after 30 day (XRD crystalline form) (listed as Form 6, methanesulfonate): still kept their original crystalline forms
